Laboratory results: US9308161B2, “Substance for restoring normal co-expression and interaction between the LOX and NRAGE proteins” (BASF Beauty Care Solutions France S.A.S., priority 2005, dated 2016)
Several values for one entry are separate records, joined by “and”; a condition that tells them apart may be missing. Identical values can stand only once.

Columns and labels:
LOX = LOX messenger RNA by quantitative RT-PCR, keratinocytes in culture in the absence of calcium differentiation (Example 15); format: cell-based, human; conditions: mRNA relative to actine vs untreated control (NT); 24 hours; no calcium differentiation; 0.1% to 1% (v/v)
Experimental: The actives were tested on normal human keratinocytes from young subjects, obtained by enzymatic extraction of human biopsies collected after surgical resection and cultivated as monolayers in a K-SFM (keratinocyte serum free medium with supplements) defined medium, supplemented with antibiotics at 37° C. under 5% CO2. The cells are sown at the second passage in 24-well plates, for example with an amount of 30 000 cells per cm^2 and grown until about 95% confluence. […] Active ingredients of different origins (vegetable, biotechnological origin or synthesized molecules for example) are tested from 0.1% volume/volume (v/v) to 1% (v/v). An active ingredient from vegetable origin is tested for example at 1% (v/v) and a synthesized molecule is tested for example at 0.1% (v/v) […] The obtained extracts are then filtered or distilled in order to recover the soluble fraction which is then filtered at 0.45 μm preferably. The biotechnological hydrolysates are obtained by fermentation of vegetable extracts in the presence of microorganisms, advantageously from the Lactobacillus or Saccharomyces family. These hydrolysates are then preferably filtered to 0.45 μm. The incubation is advantageously performed for 24 hours at 37° C. under 5% CO2, in a K-SFM medium without growth factors but with antibiotics. The negative controls are either the culture medium by itself, or the culture medium containing from 0.1% (v/v) to 1% (v/v) of the solvent used during the method for extracting the tested extracts. […] The untreated cells (NT control) are dry frozen at -80° C. after rinsing with pH 7.4 phosphate buffer. […] Modification of the expression of the genes is achieved by real time RT-PCR which measures the expression of each gene relative to actine (housekeeping gene) and expressed as a % of the untreated negative control (NT). […] According to the experimentation, the measuring threshold of C(T) (=cycle threshold) was set for T between 0.05 and 0.01 and then an arbitrary measuring unit is calculated for each gene according to the formula: […] […]

[1] = test system: differentiated human keratinocytes; test: Apoptosis by TUNEL in monolayer cultures of differentiated human keratinocytes, LOX activity inhibited; format: cell-based
Experimental: The study was carried out on monolayer cultures of differentiated human keratinocytes at confluence. The effect of LOX on apoptosis was identified by inhibiting its activity through the addition of β-APN (0.02% w/v—(weight/volume)) under normal or proapoptotic conditions (thermal shock caused by exposure to a temperature of 45° C.±0.5° C. for 1 h 30 min).
Cell death by apoptosis is detected and quantified using the TUNEL (terminal deoxynucleotidyl transferase mediated dUTP nick end labeling) technique, which is based on labeling of the […] accompanying apoptosis.
The first step consists in labeling the DNA breaks with TdT (terminal deoxynucleotidyl transferase), which catalyzes the polymerization of the fluorescein-labeled nucleotides at the free 3′-OH end of the DNA. The second step consists in detecting the incorporated fluorescein with an alkaline phosphatase-conjugated anti-fluorescein antibody after incubation with the substrate for the latter.
The experiment is validated by means of a positive control obtained by fragmentation of the DNA with a DNase solution, and a negative control obtained by depositing phosphate buffer.

transglutaminase = test: Transglutaminase immunolabelling intensity in reconstructed skin model (MIMESKIN); format: cell-based, human; conditions: positive control, calcium chloride 1.5 mM
Experimental: The reconstructed skin model is in particular achieved according to the following protocol: • 0.5 to 1.10^6 fibroblasts of normal human skin are sown on a matrix substrate based on collagen/glycosaminoglycan/chitosan, and then grown in a nutritive medium, for example DMEM-Glutamax supplemented with 10% of calf serum; ascorbic acid, preferably at a final concentration of 1 mM; EGF (epidermal grow factor), preferably at a final concentration of 10 ng/ml; Normocin, preferably at a final concentration of 100 μg/ml, for 21 days. • 0.5 to 1.10^6 […], and then grown in a nutritive medium, for example DMEM-Glutamax/Ham F-12 (ratio 3:1 v/v) supplemented with calf serum, ascorbic acid, preferably at a final concentration of 1 mM; EGF (epidermal growth factor), preferably at a final concentration of 10 ng/ml; hydrocortisone, preferably at a final concentration of 0.4 μg/ml; umuline, preferably at a final concentration of 0.12 IU/ml; isuprel, preferably at a final concentration of […]; triiodothyronine, preferably at a final concentration of 2.10^−9M; adenine, preferably at a final concentration of 24.3 μg/ml; Normocin, preferably at a final concentration of 100 μg/ml. The culture was continued for 7 days in an immersed condition. The cultures were then placed at the air-liquid interface for 14 additional days in the same medium as the immersion culture, except for the calf serum, hydrocortisone, isuprel, triidothyronine and umuline.
The active ingredient (ephedra extract) is advantageously diluted in the culture media described above at 0.5 and 1% and used 3 days after the respective sowing of fibroblasts and keratinocytes (i.e. days 3 to 21 and days 24 to 42). […]
Viewing of immunolabellings is performed under photon microscopy (Axioskop2plus—Zeiss, Germany) and quantification of the transglutaminase immunolabellings was performed by image analysis (Lucia—Nilon, France) and the effects of the treatment with the active ingredient are evaluated (Holm-Sidak statistical test, p<0.01).

OC[C@@H](O)[C@H](O)[C@@H](O)CO [Xylitol]
LOX modulation vs NT (LOX): 2.8

CCC(C)C(=O)OC (stereo not drawn) [Methyl 2 methyl butyrate]
LOX modulation vs NT (LOX): 2.5

N#CCCN [β-APN, β-aminopropionitrile]
Without thermal shock (% of labeled cells) ([1]; TUNEL, β-APN 0.02% w/v, normal conditions): 56% of labeled cells
With thermal shock (% of labeled cells) ([1]; TUNEL, β-APN 0.02% w/v, thermal shock 45° C.±0.5° C. for 1 h 30 min): 81% of labeled cells
effect on apoptosis ([1]; inhibition of the enzymatic activity of LOX by β-APN): substantial increase in apoptosis

[Ca+2].[Cl-].[Cl-] [Calcium, calcium chloride]
INTENSITY Average (transglutaminase): 0.067
Variation vs NT (transglutaminase): 59%
INTENSITY of transglutaminase labelling (single values) (transglutaminase; day 28-42): 0.061 and 0.076 and 0.064

CC/C=C/CC(=O)OCC [Ethyl trans 3-hexanoate]
LOX modulation vs NT (LOX): 2.3
